{"source": "patent US6451814B1", "about": "“Heterocyclic β-3 adrenergic receptor agonists” (Wyeth, priority 2000, dated 2002)", "key": {"[1]": {"target": "T1, human β3-adrenergic receptor (Homo sapiens, UniProt P13945)", "T1 construct": "Full length β3 AR clones (402 amino acids) containing the last 6 amino acids of hβ3—AR are prepared; expressed in transfected cells; host or cells: CHO cells", "T1 sequence (P13945 whole entry)": "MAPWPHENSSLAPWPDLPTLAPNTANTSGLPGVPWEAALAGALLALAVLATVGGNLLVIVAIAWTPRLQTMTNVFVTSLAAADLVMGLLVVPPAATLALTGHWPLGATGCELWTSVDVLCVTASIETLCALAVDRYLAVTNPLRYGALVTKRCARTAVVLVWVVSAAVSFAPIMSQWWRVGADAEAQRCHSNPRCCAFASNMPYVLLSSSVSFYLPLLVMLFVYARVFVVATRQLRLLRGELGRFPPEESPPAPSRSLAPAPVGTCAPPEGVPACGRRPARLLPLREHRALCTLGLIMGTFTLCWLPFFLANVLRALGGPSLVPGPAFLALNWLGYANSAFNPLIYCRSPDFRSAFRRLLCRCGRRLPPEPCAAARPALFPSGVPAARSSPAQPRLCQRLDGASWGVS", "assay": "cAMP response (SPA kit) in CHO cells transfected with human β3 adrenergic receptor", "type": "cell-based", "details": "for EC50: CHO cells expressing human β3-AR, 10^-9 M to 10^-5 M, 30 min at 37° C., cAMP by SPA, read-out: EC50(β3); for IA(β3): maximal response of compound compared to maximal response of isoproterenol at 10^-5 M, CHO cells, human β3-AR"}}, "data": [{"smiles": "CCCCCCCCNC(=O)N1CCC(S(=O)(=O)c2ccc(CCNC[C@H](O)COc3ccc(O)cc3)cc2)CC1", "note": "[Example 47, 4-(4-{2-[(2S)-2-Hydroxy-3-(4-hydroxy-phenoxy)-propylamino]-ethyl}-benzenesulfonyl)-piperidine-1-carboxylic Acid Octylamide]", "values": [{"measurement": "EC50", "setting": "[1]", "result": 31, "unit": "nM"}, {"measurement": "IA(β3)", "setting": "[1]", "result": 1}, {"measurement": "melting point", "result": "52 to 56", "unit": "°C"}]}, {"smiles": "COc1cccc(CNC(=O)N2CCC(Nc3ccc(CCNC[C@H](O)COc4ccc(O)cc4)cc3)CC2)c1OC", "note": "[Example 25, 4-(4-{2-[(2S)-2-Hydroxy-3-(4-hydroxy-phenoxy)-propylamino]-ethyl}-phenylamino)-piperidine-1-carboxylic Acid 2,3-dimethoxy-benzylamide]", "values": [{"measurement": "EC50", "setting": "[1]", "result": 64, "unit": "nM"}, {"measurement": "IA(β3)", "setting": "[1]", "result": 0.87}, {"measurement": "melting point", "result": "87 to 91", "unit": "°C"}]}, {"smiles": "O=C(NCc1cc(F)ccc1F)N1CCC(Nc2ccc(CCNC[C@H](O)COc3ccc(O)cc3)cc2)CC1", "note": "[Example 37, 4-(4-{2-[(2S)-2-Hydroxy-3-(4-hydroxy-phenoxy)-propylamino]-ethyl}-phenylamino)-piperidine-1-carboxylic Acid 2,5-difluoro-benzylamide]", "values": [{"measurement": "IA(β3)", "setting": "[1]", "result": 0.92}, {"measurement": "melting point", "result": "69 to 72", "unit": "°C"}]}, {"smiles": "O=C(NCc1cccc(F)c1)N1CCC(Nc2ccc(CCNC[C@H](O)COc3ccc(O)cc3)cc2)CC1", "note": "[Example 27, 4-(4-{2-[(2S)-2-Hydroxy-3-(4-hydroxy-phenoxy)-propylamino]-ethyl}-phenylamino)-piperidine-1-carboxylic Acid 3-fluoro-benzylamide]", "values": [{"measurement": "EC50", "setting": "[1]", "result": 60, "unit": "nM"}, {"measurement": "IA(β3)", "setting": "[1]", "result": 0.86}, {"measurement": "melting point", "result": "68 to 73", "unit": "°C"}]}, {"smiles": "O=C(OCc1ccc(F)cc1)N1CCC(Nc2ccc(CCNC[C@H](O)COc3ccc(O)cc3)cc2)CC1", "note": "[Example 121, 4-(4-{2-[(2S)-2-Hydroxy-3-(4-hydroxy-phenoxy)-propylamino]-ethyl}-phenylamino)-piperidine-1-carboxylic acid 4-fluoro-benzyl Ester]", "values": [{"measurement": "EC50", "setting": "[1]", "result": 90, "unit": "nM"}, {"measurement": "IA(β3)", "setting": "[1]", "result": 0.69}, {"measurement": "melting point", "result": "60 to 62", "unit": "°C"}]}, {"smiles": "CC(C)CCNC(=O)N1CCC(Nc2ccc(CCNC[C@H](O)COc3ccc(O)cc3)cc2)CC1", "note": "[Example 35, 4-(4-{2-[(2S)-2-Hydroxy-3-(4-hydroxy-phenoxy)-propylamino]-ethyl}-phenylamino)-piperidine-1-carboxylic Acid (3-methyl-butyl)-amide]", "values": [{"measurement": "EC50", "setting": "[1]", "result": 133, "unit": "nM"}, {"measurement": "IA(β3)", "setting": "[1]", "result": 0.96}, {"measurement": "melting point", "result": "72 to 77", "unit": "°C"}]}, {"smiles": "O=C(NCC1CCCC1)N1CCC(Nc2ccc(CCNC[C@H](O)COc3ccc(O)cc3)cc2)CC1", "note": "[Example 70, 4-(4-{2-[(2S)-2-Hydroxy-3-(4-hydroxy-phenoxy)-propylamino]-ethyl}-phenylamino)-piperidine-1-carboxylic Acid Cyclopentylmethyl-amide]", "values": [{"measurement": "EC50", "setting": "[1]", "result": 106, "unit": "nM"}, {"measurement": "IA(β3)", "setting": "[1]", "result": 1}, {"measurement": "melting point", "result": "76 to 78", "unit": "°C"}]}, {"smiles": "CS(=O)(=O)Nc1cc(OC[C@@H](O)CNCCc2ccc(NC3CCN(C(=O)NCc4cc(F)ccc4F)CC3)cc2)ccc1O", "note": "[Example 50, 4-(4-{2-[(2S)-2-Hydroxy-3-(4-hydroxy-3-methanesulfonylamino-phenoxy)-propylamino]-ethyl}-phenylamino)-piperidine-1-carboxylic Acid 2,5-difluoro-benzylamide]", "values": [{"measurement": "IA(β3)", "setting": "[1]", "result": 1}, {"measurement": "melting point", "result": "103 to 108", "unit": "°C"}]}, {"smiles": "CS(=O)(=O)Nc1cc([C@@H](O)CNCCc2ccc(NC3CCN(c4ccc(S(=O)(=O)N5CCCCC5)cc4)CC3)cc2)ccc1O", "note": "[Example 119]", "values": [{"measurement": "EC50", "setting": "[1]", "result": 8, "unit": "nM"}, {"measurement": "IA(β3)", "setting": "[1]", "result": 1.03}, {"measurement": "melting point", "result": "118 to 120", "unit": "°C"}]}, {"smiles": "O=C(NCc1ccccc1C(F)(F)F)N1CCC(Nc2ccc(CCNC[C@H](O)COc3ccc(O)cc3)cc2)CC1", "note": "[Example 33, 4-(4-{2-[(2S)-2-Hydroxy-3-(4-hydroxy-phenoxy)-propylamino]-ethyl}-phenylamino)-piperidine-1-carboxylic Acid 2-trifluoromethyl-benzylamide]", "values": [{"measurement": "EC50", "setting": "[1]", "result": 55, "unit": "nM"}, {"measurement": "IA(β3)", "setting": "[1]", "result": 0.78}, {"measurement": "melting point", "result": "83 to 86", "unit": "°C"}]}, {"smiles": "CCCCCCCCNC(=O)N1CCC(Nc2ccc(CCNC[C@H](O)COc3ccc(O)c4c3CCC(=O)N4)cc2)CC1", "note": "[Example 69, 4-(4-{2-[(2S)-2-Hydroxy-3-(8-hydroxy-2-oxo-1,2,3,4-tetrahydro-quinolin-5-yloxy)-propylamino]-ethyl}-phenylamino)-piperidine-1-carboxylicacid Octylamide]", "values": [{"measurement": "IA(β3)", "setting": "[1]", "result": 0.67}, {"measurement": "melting point", "result": "83 to 85", "unit": "°C"}]}, {"smiles": "CCCCCCCCNC(=O)Nc1ccc(S(=O)(=O)N2CCC(Nc3ccc(CCNC[C@H](O)c4ccc(O)c(NS(C)(=O)=O)c4)cc3)CC2)cc1", "note": "[Example 116, N-(2-Hydroxy-5-{(1R)-1-hydroxy-2-[2-(4-{1-[4-(3-octyl-ureido)-benzenesulfonyl]-piperidin-4-ylamino}-phenyl)-ethylamino]-ethyl}-phenyl)-methanesulfonamide]", "values": [{"measurement": "EC50", "setting": "[1]", "result": 1, "unit": "nM"}, {"measurement": "IA(β3)", "setting": "[1]", "result": 1.1}, {"measurement": "melting point", "result": "134 to 136", "unit": "°C"}]}, {"smiles": "O=C(c1cc2cccc([N+](=O)[O-])c2[nH]1)N1CCC(Nc2ccc(CCNC[C@H](O)COc3ccc(O)cc3)cc2)CC1", "note": "[Example 95, [4-(4-{2-[(2S)-2-Hydroxy-3-(4-hydroxy-phenoxy)-propylamino]-ethyl}-phenylamino)-piperidin-1-yl]-(7-nitro-1H-indol-2-yl)-methanone]", "values": [{"measurement": "EC50", "setting": "[1]", "result": 66, "unit": "nM"}, {"measurement": "IA(β3)", "setting": "[1]", "result": 0.9}, {"measurement": "melting point", "result": "100 to 102", "unit": "°C"}]}, {"smiles": "CCCCCCCCNC(=O)N1CCC(Nc2ccc(CCNC[C@H](O)COc3ccc(O)c(F)c3)cc2)CC1", "note": "[Example 65, 4-(4-{2-[(2S)-3-(3-Fluoro-4-hydroxy-phenoxy)-2-hydroxy-propylamino]-ethyl}-phenylamino)-piperidine-1-carboxylic Acid Octylamide]", "values": [{"measurement": "EC50", "setting": "[1]", "result": 300, "unit": "nM"}, {"measurement": "IA(β3)", "setting": "[1]", "result": 0.57}, {"measurement": "melting point", "result": "60 to 62", "unit": "°C"}]}, {"smiles": "O=C(NCC(F)(F)F)N1CCC(Nc2ccc(CCNC[C@H](O)COc3ccc(O)cc3)cc2)CC1", "note": "[Example 13, 4-(4-{2-[(2S)-2-Hydroxy-3-(4-hydroxy-phenoxy)-propylamino]-ethyl}-phenylamino)-piperidine-1-carboxylic Acid (2,2,2-trifluoro-ethyl)-amide]", "values": [{"measurement": "EC50", "setting": "[1]", "result": 66, "unit": "nM"}, {"measurement": "IA(β3)", "setting": "[1]", "result": 0.82}, {"measurement": "melting point", "result": "89 to 94", "unit": "°C"}]}, {"smiles": "CCCCCCCCNC(=O)N1CCC(Nc2ccc(CCNC[C@H](O)COc3ccc(O)cc3Cl)cc2)CC1", "note": "[Example 16, 4-[4-(2-{[(2S)-3-(2-Chloro-4-hydroxyphenoxy)-2-hydroxypropyl]amino}ethyl)anilino]-N-octyl-1-piperidinecarboxamide]", "values": [{"measurement": "EC50", "setting": "[1]", "result": 542, "unit": "nM"}, {"measurement": "IA(β3)", "setting": "[1]", "result": 1}, {"measurement": "melting point", "result": "61 to 65", "unit": "°C"}]}, {"smiles": "O=C(NCCCCCCCCF)N1CCC(Nc2ccc(CCNC[C@H](O)COc3ccc(O)cc3)cc2)CC1", "note": "[Example 55, N-(8-Fluorooctyl)-4-[4-(2-{[(2S)-2-hydroxy-3-(4-hydroxyphenoxy)propyl]amino}ethyl)anilino]-1-piperidinecarboxamide]", "values": [{"measurement": "EC50", "setting": "[1]", "result": 171, "unit": "nM"}, {"measurement": "IA(β3)", "setting": "[1]", "result": 1.07}, {"measurement": "melting point", "result": "148 to 150", "unit": "°C"}]}, {"smiles": "CCCCCCCCS(=O)(=O)N1CCC(Nc2ccc(CCNC[C@H](O)COc3ccc(O)cc3)cc2)CC1", "note": "[Example 111]", "values": [{"measurement": "EC50", "setting": "[1]", "result": 125, "unit": "nM"}, {"measurement": "IA(β3)", "setting": "[1]", "result": 0.78}, {"measurement": "melting point", "result": "64 to 68", "unit": "°C"}]}, {"smiles": "CCCCCCNC(=O)N1CCC(Sc2ccc(CCNC[C@H](O)COc3ccc(O)cc3)cc2)CC1", "note": "[Example 41, N-hexyl-4-{[4-(2-{[(2S)-2-hydroxy-3-(4-hydroxyphenoxy)propyl]amino}ethyl)phenyl]sulfanyl}-1-piperidinecarboxamide]", "values": [{"measurement": "EC50", "setting": "[1]", "result": 620, "unit": "nM"}, {"measurement": "IA(β3)", "setting": "[1]", "result": 0.84}, {"measurement": "melting point", "result": "181 to 195", "unit": "°C"}]}, {"smiles": "O=C(Nc1ccccc1)N1CCC(Sc2ccc(CCNC[C@H](O)COc3ccc(O)cc3)cc2)CC1", "note": "[Example 40, 4-(4-{2-[(2S)-2-Hydroxy-3-(4-hydroxy-phenoxy)-propylamino]-ethyl}-phenylsulfanyl)-piperidine-1-carboxylic Acid Phenylamide]", "values": [{"measurement": "EC50", "setting": "[1]", "result": 101, "unit": "nM"}, {"measurement": "IA(β3)", "setting": "[1]", "result": 0.9}, {"measurement": "melting point", "result": 121, "unit": "°C"}]}, {"smiles": "NC(=O)N1CCC(Nc2ccc(CCNC[C@H](O)COc3ccc(O)cc3)cc2)CC1", "note": "[Example 18, 4-(4-{2-[(2S)-2-Hydroxy-3-(4-hydroxy-phenoxy)-propylamino]-ethyl}-phenylamino)-piperidine-1-carboxylic Acid Amide]", "values": [{"measurement": "IA(β3)", "setting": "[1]", "result": 1}, {"measurement": "melting point", "result": "84 to 89", "unit": "°C"}]}, {"smiles": "O=C(NCc1ccc(F)cc1)N1CCC(Sc2ccc(CCNC[C@H](O)COc3ccc(O)cc3)cc2)CC1", "note": "[Example 42, 4-(4-{2-[(2S)-2-Hydroxy-3-(4-hydroxy-phenoxy)-propylamino]-ethyl}-phenylsulfanyl)-piperidine-1-carboxylic Acid-4-fluorobenzylamide]", "values": [{"measurement": "EC50", "setting": "[1]", "result": 95, "unit": "nM"}, {"measurement": "IA(β3)", "setting": "[1]", "result": 0.72}, {"measurement": "melting point", "result": "181 to 183", "unit": "°C"}]}, {"smiles": "Cc1ccsc1C(=O)N1CCC(Sc2ccc(CCNC[C@H](O)COc3ccc(O)cc3)cc2)CC1", "note": "[Example 106, [4-(4-{2-[(2S)-2-Hydroxy-3-(4-hydroxy-phenoxy)-propylamino]-ethyl}-phenylsulfanyl)-piperidin-1-yl]-(3-methyl-thiophen-2-yl)-methanone]", "values": [{"measurement": "EC50", "setting": "[1]", "result": 127, "unit": "nM"}, {"measurement": "IA(β3)", "setting": "[1]", "result": 0.79}, {"measurement": "melting point", "result": "135 to 144", "unit": "°C"}]}, {"smiles": "O=C(NCc1ccc(F)cc1)N1CCC(Nc2ccc(OCCNC[C@H](O)COc3ccc(O)cc3)cc2)CC1", "note": "[Example 39, 4-(4-{2-[(2S)-2-Hydroxy-3-(4-hydroxy-phenoxy)-propylamino]-ethoxy}-phenylamino)-piperidine-1-carboxylic Acid 4-fluoro-benzylamide]", "values": [{"measurement": "EC50", "setting": "[1]", "result": 36, "unit": "nM"}, {"measurement": "IA(β3)", "setting": "[1]", "result": 0.9}, {"measurement": "melting point", "result": "73 to 77", "unit": "°C"}]}]}
